Assay results taken from patent US8440724B2, “Inhibiting neurotransmitter reuptake” (Mayo Foundation for Medical Education and Research, priority 2008, dated 2013).
Like-named read-outs stand apart in the source and are kept apart here.

Legend:
[1] = target: T1, human norepinephrine transporter (hNET) (Homo sapiens, UniProt P23975); experiment: Radioligand binding to cloned hNET, [3H]nisoxetine, HEK-293 cell membranes
T1 construct: expressed in transfected cells; host or cells: HEK-293, stably transfected

[2] = tested on: hSERT, hNET, hDAT; experiment: Human transporter binding: rank order and range of potency over the three transporters; conditions: for Potency (rank-order of potency of binding; S = hSERT, N = hNET, D = hDAT): from KD values; for Potency Range (difference between most potent and least potent binding): ratio of KD over hSERT, hNET, hDAT
Text: The program was modified to calculate the Hill coefficient (nH). Data are presented as geometric mean±S.E.M. of at least three independent experiments. One-component models and two-component models were compared using the root mean square error of each fit and the F test.

[3] = target: T2, rat norepinephrine transport, synaptosomal preparations (Rattus norvegicus, UniProt Q63380); experiment: Inhibition of [3H]NE reuptake in rat brain synaptosomes (occipital cortex); format: biochemical
T2 construct: from tissue; host or cells: rat occipital cortex synaptosomes (male Sprague-Dawley)
Experimental: The dissected tissues were separately homogenized in 20 volumes (cortical) or 40 volumes (striatal) of ice-cold, oxygenated HEPES buffer 0.32 M sucrose containing 11 mM glucose (pH 7.4) in a glass Potter-Elvehjem homogenizer with Teflon® pestle (8 strokes, 900 rpm). The homogenates were centrifuged at 1,000×g for 10 minutes. The resulting supernatant was decanted and further centrifuged at 20,000×g for 20 minutes at 4° C. […] The synaptosomal protein concentration was determined by using the BCA assay (Pierce Biotechnology Inc, Rockford, Ill.), according to the manufacturer's instructions. Synaptosomal protein (1.0-2.5 mg) was suspended in 1 mL oxygenated incubation buffer as defined above. Test amine compound was pre-incubated with the synaptosomal preparation for 30 minutes at 37° C. in a shaking water bath (80 oscillations/minute).

[4] = tested on: rat 5-HT, NE and DA transport, synaptosomal preparations; experiment: Rat brain synaptosomal transport: rank order of potency; format: biochemical; conditions: from Ki values; S = 5HT, N = NE, D = DA
[5] = tested on: male C57BL/6J mice; experiment: Tail suspension test (TST) in mice; format: in vivo, mouse; conditions: for Duration of immobility in TST vs saline: 5 mg/kg IP, FIG. 10E
Experimental: When mice are suspended by their tail, there is an initial period of agitation, followed by immobility. This test identifies antidepressant compounds, which decrease the duration of immobility.
Test compounds were prepared by formulating the compounds with a pharmaceutically acceptable carrier such as saline. […] Each mouse was then subjected to the tail-suspension test (TST). Each mouse (n>3) was suspended by its tail 45 cm above the table top with the use of adhesive tape placed 1 cm from the tip of its tail. Behavior was scored every 5 seconds throughout the 6-minute test as either mobile or immobile (FIG. 10A-D) or total duration of immobility during the 6-minute test (FIGS. 10E and 10H). Mice were considered immobile only when hanging passively and completely motionless. Scores for each behavior were expressed as total counts per 6-minute session.

[6] = target: human norepinephrine transporter (Homo sapiens, UniProt P23975); experiment: Inhibition of [3H]NE transport into HEK-293 cells expressing the human transporter
[7] = target: human dopamine transporter (Homo sapiens, UniProt Q01959); experiment: Inhibition of [3H]DA transport into HEK-293 cells expressing the human transporter
[8] = target: human serotonin transporter (Homo sapiens, UniProt P31645); experiment: Inhibition of [3H]5-HT transport into HEK-293 cells expressing the human transporter
[9] = mice, 5 and 10 mg/kg IP, 30 minutes before testing
[10] = Geometric Mean ± SEM, HCl salts, read-out: Equilibrium Dissociation Constant (KD) for Transporter Binding, hNET (N)
[11] = Geometric Mean ± SEM, rat brain synaptosomes, read-out: Inhibitor Constant (Ki), NE transport

Chain of human dopamine transporter (Q01959 whole entry): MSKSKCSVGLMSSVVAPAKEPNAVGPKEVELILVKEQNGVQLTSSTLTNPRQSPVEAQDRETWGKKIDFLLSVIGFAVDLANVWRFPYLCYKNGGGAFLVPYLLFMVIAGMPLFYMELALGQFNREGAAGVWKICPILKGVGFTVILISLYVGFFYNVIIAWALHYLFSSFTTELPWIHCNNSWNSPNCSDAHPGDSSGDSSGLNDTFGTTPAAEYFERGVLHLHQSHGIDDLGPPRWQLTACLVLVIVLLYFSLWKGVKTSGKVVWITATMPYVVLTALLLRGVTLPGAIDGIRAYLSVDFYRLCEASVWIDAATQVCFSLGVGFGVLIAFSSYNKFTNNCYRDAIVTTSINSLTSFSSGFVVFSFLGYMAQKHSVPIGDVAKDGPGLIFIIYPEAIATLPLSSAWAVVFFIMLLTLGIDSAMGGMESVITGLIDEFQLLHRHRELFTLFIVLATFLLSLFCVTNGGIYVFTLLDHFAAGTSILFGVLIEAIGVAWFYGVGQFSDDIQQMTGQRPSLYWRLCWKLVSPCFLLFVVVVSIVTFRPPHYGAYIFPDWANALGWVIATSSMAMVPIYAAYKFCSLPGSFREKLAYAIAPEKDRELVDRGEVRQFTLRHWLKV
T2 sequence (Q63380 1-617): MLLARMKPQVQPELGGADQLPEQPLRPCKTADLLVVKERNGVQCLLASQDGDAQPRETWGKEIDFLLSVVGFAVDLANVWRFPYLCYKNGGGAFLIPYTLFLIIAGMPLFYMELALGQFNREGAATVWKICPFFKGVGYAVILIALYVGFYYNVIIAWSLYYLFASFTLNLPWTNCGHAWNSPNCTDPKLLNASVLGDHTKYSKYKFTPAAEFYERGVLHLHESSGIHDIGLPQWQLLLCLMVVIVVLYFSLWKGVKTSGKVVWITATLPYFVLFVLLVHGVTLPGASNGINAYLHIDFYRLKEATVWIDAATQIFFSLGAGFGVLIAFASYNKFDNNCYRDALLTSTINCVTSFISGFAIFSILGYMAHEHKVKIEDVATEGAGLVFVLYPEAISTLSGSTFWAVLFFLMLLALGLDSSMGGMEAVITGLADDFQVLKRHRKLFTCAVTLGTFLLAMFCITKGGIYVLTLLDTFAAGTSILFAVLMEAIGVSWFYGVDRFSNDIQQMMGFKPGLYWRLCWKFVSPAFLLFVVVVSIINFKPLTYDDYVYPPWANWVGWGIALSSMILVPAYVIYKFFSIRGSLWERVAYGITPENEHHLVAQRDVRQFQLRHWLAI
Chain of human serotonin transporter (P31645 whole entry): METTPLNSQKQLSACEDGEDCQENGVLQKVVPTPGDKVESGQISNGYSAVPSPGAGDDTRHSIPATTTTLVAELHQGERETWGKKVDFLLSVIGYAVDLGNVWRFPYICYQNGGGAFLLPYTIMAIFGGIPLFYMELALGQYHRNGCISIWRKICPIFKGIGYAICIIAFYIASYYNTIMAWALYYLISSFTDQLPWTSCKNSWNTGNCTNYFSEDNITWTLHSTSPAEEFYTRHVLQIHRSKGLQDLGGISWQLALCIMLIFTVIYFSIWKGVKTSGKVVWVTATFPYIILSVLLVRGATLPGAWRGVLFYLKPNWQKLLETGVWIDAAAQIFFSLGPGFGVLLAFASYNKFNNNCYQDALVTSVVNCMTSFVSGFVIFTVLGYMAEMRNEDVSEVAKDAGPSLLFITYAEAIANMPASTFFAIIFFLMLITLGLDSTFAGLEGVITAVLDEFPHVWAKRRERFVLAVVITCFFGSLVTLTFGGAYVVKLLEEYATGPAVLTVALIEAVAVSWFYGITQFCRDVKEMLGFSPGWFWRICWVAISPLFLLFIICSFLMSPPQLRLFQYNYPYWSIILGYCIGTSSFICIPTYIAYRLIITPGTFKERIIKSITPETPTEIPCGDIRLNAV
T1 sequence (P23975 whole entry): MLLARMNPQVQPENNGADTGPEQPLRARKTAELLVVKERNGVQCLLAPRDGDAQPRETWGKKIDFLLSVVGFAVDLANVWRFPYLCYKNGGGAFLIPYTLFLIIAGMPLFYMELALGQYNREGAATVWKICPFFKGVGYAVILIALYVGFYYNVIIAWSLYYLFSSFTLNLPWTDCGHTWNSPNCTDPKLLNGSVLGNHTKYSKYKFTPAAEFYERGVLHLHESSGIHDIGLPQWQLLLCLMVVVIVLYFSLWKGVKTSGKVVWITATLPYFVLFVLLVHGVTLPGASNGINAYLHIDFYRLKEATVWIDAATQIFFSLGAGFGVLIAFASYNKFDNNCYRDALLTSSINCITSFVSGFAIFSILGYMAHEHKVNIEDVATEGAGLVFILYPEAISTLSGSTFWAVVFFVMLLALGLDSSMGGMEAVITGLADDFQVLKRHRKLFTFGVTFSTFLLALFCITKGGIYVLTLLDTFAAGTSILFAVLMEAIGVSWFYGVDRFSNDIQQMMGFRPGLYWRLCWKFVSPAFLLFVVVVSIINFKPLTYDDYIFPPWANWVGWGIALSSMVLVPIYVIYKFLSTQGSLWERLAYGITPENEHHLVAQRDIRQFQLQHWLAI
Chain of human norepinephrine transporter (P23975 whole entry): as above

| Compound | Kd [1] [nM] | Potency (rank-order of potency of binding; S = hSERT, N = hNET, D = hDAT) [2] | Potency Range (difference between most potent and least potent binding) [2] [fold] | Potency (rank order, transport into rat brain synaptosomal preparations) [4] | Ki [6] [nM] | Ki [7] [nM] | Ki [8] [nM] | Kd [1, 10] [nM] | Ki [3, 11] [nM] | other results |
| --- | --- | --- | --- | --- | --- | --- | --- | --- | --- | --- |
| CNCC(c1ccc2ccccc2c1)C(F)c1ccccc1 (racemic) [MCJ001-F-(±)-RR, (2R,3R/2S,3S)-3-fluoro-N-methyl-2-(naphthalen-2-yl)-3-phenylpropan-1-amine] | 4.5 ± 0.8 | S > N > D | 36 | N > S > D | 2.1 ± 0.5 | 33 ± 1 | 18 ± 3 |  |  | Ki [3]: 47 ± 5 nM; Immobility in TST (counts per 6-minute session) vs saline ([5]; mice, 5 and 10 mg/kg IP): significantly (P≦0.016) reduced immobility; Mobility in TST (counts per 6-minute session) vs saline [5, 9]: significantly (P≦0.016) increased mobility |
| CNC[C@H](c1ccc2ccccc2c1)[C@H](OCCCCCO[C@H](c1ccccc1)[C@H](CNC)c1ccc2ccccc2c1)c1ccccc1 [MCJ001-Dimer5-SS, (2S,2′S,3S,3′S)-3,3′-(pentane-1,5-diylbis(oxy))bis(N-methyl-2-(naphthalen-2-yl)-3-phenylpropan-1-amine)] |  | D > S > N | 1.4 | S > N > D | 720 | 52 | 14 ± 2 | 160 ± 30 | 200 ± 30 | Duration of immobility in TST vs saline ([5]; mice): except MCJ002-NH2-SS and MCJ001-Dimer5-SS, significantly reduced the time that the animals were immobile |
| CNC[C@H](c1ccc2ccccc2c1)[C@@H](F)c1ccccc1 [MCJ001-F-RS, (2S,3R)-3-fluoro-N-methyl-2-(naphthalen-2-yl)-3-phenylpropan-1-amine] | 0.9 ± 0.1 | N > S > D | 21 | S = N > D | 4.8 | 30 ± 5 | 3.5 ± 0.9 |  |  | Ki [3]: 9 ± 1 nM; Immobility in TST (counts per 6-minute session) vs saline ([5]; mice, 1, 2.5, and 5 mg/kg IP, FIG. 10B): significantly (P<0.005) reduced immobility; Mobility in TST (counts per 6-minute session) vs saline ([5]; mice, 2.5 and 5 mg/kg IP, FIG. 10B): significantly (P<0.005) increased mobility |
| CNC[C@@H](c1ccc2ccccc2c1)[C@H](F)c1ccccc1 [MCJ001-F-SR, (2R,3S)-3-fluoro-N-methyl-2-(naphthalen-2-yl)-3-phenylpropan-1-amine] | 430 ± 70 | D > S > N | 12 | S > N > D |  |  | 150 |  | 110 ± 20 | Binding at hNET compared to PRC200-SS ([1]; in words): much more weakly at hNET and hSERT; Potency (rank-order of potency of binding; S = hSERT, N = hNET, D = hDAT) ([2]; listed as MCJ001-F—SR): D>S>N; Immobility in TST (counts per 6-minute session) vs saline ([5]; mice, 10 mg/kg IP, FIG. 10C): significantly (P<0.033) reduced immobility; Mobility in TST (counts per 6-minute session) vs saline ([5]; mice, 10 mg/kg IP, FIG. 10C): significantly (P≦0.033) increased mobility |
| CNC[C@H](c1ccc2ccccc2c1)[C@@H](N=[N+]=[N-])c1ccccc1 [MCJ001-N3-RS, (2S,3R)-3-azido-N-methyl-2-(naphthalen-2-yl)-3-phenylpropan-1-amine] |  | N > S > D | 3.0 | N > S > D | 24 ± 4 | 64 | 48 ± 10 | 64 ± 7 | 56 ± 3 |  |
| CNC[C@@H](c1ccc2ccccc2c1)[C@H](N=[N+]=[N-])c1ccccc1 [MCJ001-N3-SR, (2R,3S)-3-azido-N-methyl-2-(naphthalen-2-yl)-3-phenylpropan-1-amine] |  | S > N > D | 3.8 | N > S > D | 1400 | 77 | 46 ± 6 | 700 ± 100 | 250 ± 20 |  |
| CNC[C@H](c1ccc2ccccc2c1)[C@H](OC)c1ccccc1 [MCJ001-OMe-SS, (2S,3S)-3-methoxy-N-methyl-2-(naphthalen-2-yl)-3-phenylpropan-1-amine] |  | N > S > D | 29 | S > N > D | 1.2 ± 0.2 | 21 ± 3 | 12 ± 2 | 1.4 ± 0.2 | 24 ± 2 | Immobility in TST (counts per 6-minute session) vs saline ([5]; mice, 15 mg/kg orally (gastric gavage), FIG. 10A): significantly (P<0.02) reduced immobility; Immobility in TST (counts per 6-minute session) vs saline ([5]; mice, 5 and 10 mg/kg IP): significantly (P<0.02) reduced immobility; Mobility in TST (counts per 6-minute session) vs saline [5, 9]: significantly (P<0.02) increased mobility |
| CN(C)C[C@H](c1ccc2ccccc2c1)[C@H](N)c1ccccc1 [MCJ002-NH2-SS, (2S,3S)-N1,N1-dimethyl-2-(naphthalen-2-yl)-3-phenylpropane-1,3-diamine] |  | S > D > N | 5.3 |  |  |  |  | 12.6 ± 0.9 |  | Occupancy of hNET binding sites ([1]; when the compound occupies 95% of hSERT binding sites, calculation based on occupancy theory): 79%; Duration of immobility in TST vs saline ([5]; mice): except MCJ002-NH2-SS and MCJ001-Dimer5-SS, significantly reduced the time that the animals were immobile |
